US20250197374A1, “WEE1 DEGRADING COMPOUNDS AND USES THEREOF” (BRISTOL-MYERS SQUIBB COMPANY, priority 2023, published 2025)

Columns and labels:
Format in all cases: cell-based
[1] = test system: MDA-MB-231 cells; assay: MDA-MB-231 cell proliferation assay (Cell-Titer-Glo, 120 hr); conditions: for MDA-MB 231 Cell Prolif. 120 hr YMin (%): minimal percent of DMSO control observed; for EC50: Homo sapiens, MDA-MB-231, 120 h, read-out: MDA-MB 231 Cell Prolif. 120 hr EC50
How it was run: (§1)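 Growth inhibition was read as CellTiter-Glo luminescence after 120 h at 37 °C in RPMI/10% FBS, with 400 MKN45 or 800 MDA-MB-231 cells seeded per well. Compounds were tested in 10-point half-log series starting at 1 or 10 uM (0.1% DMSO), in triplicate for MKN45 and duplicate for MDA-MB-231. EC50 values are four-parameter fits to %DMSO control, and Ymin-obs is the minimal observed %DMSO.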

[2] = target: T1, WEE1 (Homo sapiens, UniProt P30291+Q96SW2); assay: WEE1-ePL degradation assay (293T-LentiX, InCELL Hunter luminescence, 4 hr); conditions: for DC50: LentiX-HEK293T cells expressing WEE1-ePL, 4 hr incubation, read-out: 293T-LentiX WEE1-ePL Degradation 4 hr EC50; for 293T-LentiX WEE1-ePL Degradation 4 hr YMin (%): lower limit of fit, % of DMSO control signal remaining
T1 construct: C-terminal ePL-tagged (DiscoverX, Fremont, CA) full-length WEE1 expression construct; expressed in transfected cells; host or cells: LentiX-HEK293T (Invitrogen), lentivirally transduced; the cells also over-express GSPT1-GN
T1 sequence (P30291 whole entry): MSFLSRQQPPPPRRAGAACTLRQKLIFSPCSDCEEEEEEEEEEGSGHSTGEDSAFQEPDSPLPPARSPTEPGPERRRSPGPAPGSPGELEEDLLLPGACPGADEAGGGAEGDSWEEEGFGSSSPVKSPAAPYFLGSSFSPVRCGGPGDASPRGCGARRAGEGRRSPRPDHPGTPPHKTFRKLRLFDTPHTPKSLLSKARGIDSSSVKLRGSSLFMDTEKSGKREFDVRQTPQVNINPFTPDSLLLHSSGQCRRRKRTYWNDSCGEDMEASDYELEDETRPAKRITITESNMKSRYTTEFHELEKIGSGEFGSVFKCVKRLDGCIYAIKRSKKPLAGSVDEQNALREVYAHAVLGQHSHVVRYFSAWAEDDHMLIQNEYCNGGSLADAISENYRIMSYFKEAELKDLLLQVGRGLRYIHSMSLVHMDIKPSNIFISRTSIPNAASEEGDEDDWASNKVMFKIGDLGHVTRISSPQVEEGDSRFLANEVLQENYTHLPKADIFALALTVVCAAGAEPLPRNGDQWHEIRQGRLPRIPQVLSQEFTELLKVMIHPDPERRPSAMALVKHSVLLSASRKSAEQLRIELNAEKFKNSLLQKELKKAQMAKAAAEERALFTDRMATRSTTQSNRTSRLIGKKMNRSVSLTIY
T1 sequence (Q96SW2 whole entry): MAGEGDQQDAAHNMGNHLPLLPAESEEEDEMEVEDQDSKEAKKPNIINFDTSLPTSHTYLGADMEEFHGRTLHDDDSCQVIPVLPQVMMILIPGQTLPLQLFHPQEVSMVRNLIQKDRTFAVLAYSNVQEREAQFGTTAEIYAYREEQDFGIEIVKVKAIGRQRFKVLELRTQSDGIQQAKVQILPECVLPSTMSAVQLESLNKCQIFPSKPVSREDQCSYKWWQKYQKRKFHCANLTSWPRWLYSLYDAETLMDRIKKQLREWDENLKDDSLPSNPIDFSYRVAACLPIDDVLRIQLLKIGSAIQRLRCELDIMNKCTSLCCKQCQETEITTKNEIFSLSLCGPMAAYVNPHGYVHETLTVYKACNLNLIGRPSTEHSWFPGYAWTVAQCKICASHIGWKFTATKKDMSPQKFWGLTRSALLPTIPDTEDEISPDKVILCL
T1 sequence (Q16531 whole entry partner): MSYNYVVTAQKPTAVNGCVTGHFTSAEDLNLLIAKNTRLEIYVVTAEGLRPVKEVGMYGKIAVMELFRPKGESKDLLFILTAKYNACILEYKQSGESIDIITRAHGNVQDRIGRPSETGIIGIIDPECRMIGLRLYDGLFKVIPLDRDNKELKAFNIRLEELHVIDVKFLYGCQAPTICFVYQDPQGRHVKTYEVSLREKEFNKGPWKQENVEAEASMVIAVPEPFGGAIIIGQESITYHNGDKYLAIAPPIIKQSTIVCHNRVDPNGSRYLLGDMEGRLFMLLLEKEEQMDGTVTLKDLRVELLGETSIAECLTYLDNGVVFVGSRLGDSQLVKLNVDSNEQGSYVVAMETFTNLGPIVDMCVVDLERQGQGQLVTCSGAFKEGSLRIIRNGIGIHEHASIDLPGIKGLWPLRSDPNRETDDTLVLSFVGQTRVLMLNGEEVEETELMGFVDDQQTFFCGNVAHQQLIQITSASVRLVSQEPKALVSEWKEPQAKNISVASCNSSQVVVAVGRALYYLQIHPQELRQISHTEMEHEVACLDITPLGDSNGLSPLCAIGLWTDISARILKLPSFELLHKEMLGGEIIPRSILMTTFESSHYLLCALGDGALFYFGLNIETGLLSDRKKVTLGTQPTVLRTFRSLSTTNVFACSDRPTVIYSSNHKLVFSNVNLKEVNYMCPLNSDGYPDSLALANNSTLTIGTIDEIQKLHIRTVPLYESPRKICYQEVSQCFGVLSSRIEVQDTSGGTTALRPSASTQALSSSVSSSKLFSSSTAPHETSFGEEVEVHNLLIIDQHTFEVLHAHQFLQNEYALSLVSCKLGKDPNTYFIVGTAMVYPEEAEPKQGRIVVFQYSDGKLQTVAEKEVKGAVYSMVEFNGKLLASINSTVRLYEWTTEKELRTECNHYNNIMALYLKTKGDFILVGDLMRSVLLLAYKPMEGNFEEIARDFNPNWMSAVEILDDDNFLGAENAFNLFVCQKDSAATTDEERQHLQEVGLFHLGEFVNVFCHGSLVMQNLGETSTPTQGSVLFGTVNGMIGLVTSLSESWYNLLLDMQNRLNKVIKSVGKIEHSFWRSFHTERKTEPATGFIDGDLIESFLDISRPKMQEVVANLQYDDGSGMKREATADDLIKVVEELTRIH
How it was run: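 EC50 comes from a four-parameter logistic fit of ePL luminescence (InCELL Hunter), with DMSO control defining Ymax. Compounds ran as 10-point 3-fold dilutions from 1 or 10 µM for 4 h at 37 °C. Cells were HEK293T-LentiX with ePL-tagged full-length WEE1 and over-expressed Cereblon-resistant GSPT1-GN.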

[3] = test system: MKN45 cells; assay: MKN45 cell proliferation assay (Cell-Titer-Glo, 120 hr); conditions: for EC50: Homo sapiens, MKN-45, 120 h, read-out: MKN45 Cell Prolif. 120 hr EC50; for MKN45 Cell Prolif. 120 hr YMin (%): minimal percent of DMSO control observed
How it was run: as §1

In the case of COC[C@@H]1CN(Cc2cc(F)c3nc(C4CCCO4)ccc3c2)C[C@H]1Oc1ccc2c(c1)CN(C1CCC(=O)NC1=O)C2=O (relative stereo) [Example 65, rel-(3S)-3-(5-(((3S,4S)-1-((8-fluoro-2-(tetrahydrofuran-2-yl)quinolin-6-yl)methyl)-4-(methoxymethyl)pyrrolidin-3-yl)oxy)-1-oxoisoindolin-2-yl)piperidine-2,6-dione], the “MDA-MB 231 Cell Prolif. 120 hr YMin (%)” value [1] is reported as 94.2%, the DC50 [2] is reported as 1 nM and the “293T-LentiX WEE1-ePL Degradation 4 hr YMin (%)” value [2] is reported as 27.3%. For the same compound, the EC50 [3] was 2 nM and the “MKN45 Cell Prolif. 120 hr YMin (%)” value [3] was 8.1%.

COC[C@@H]1CN(Cc2cc(F)c3nc(C4CCCCO4)ncc3c2)C[C@H]1Oc1ccc2c(c1)CN([C@H]1CCC(=O)NC1=O)C2=O (relative stereo) [Example 96, rel-(3S)-3-(5-{[(3S,4S)-1-{[8-fluoro-2-(oxan-2-yl)quinazolin-6-yl]methyl}-4-(methoxymethyl)pyrrolidin-3-yl]oxy}-1-oxo-2,3-dihydro-1H-isoindol-2-yl)piperidine-2,6-dione] was tested, and the EC50 [1] was 123 nM, the “MDA-MB 231 Cell Prolif. 120 hr YMin (%)” value [1] was 28.4% and the DC50 [2] was 7 nM. For the same compound, the “293T-LentiX WEE1-ePL Degradation 4 hr YMin (%)” value [2] was 29.4%, the EC50 [3] was 9 nM and the “MKN45 Cell Prolif. 120 hr YMin (%)” value [3] was 11.4%.

For O=C1CC[C@H](N2Cc3cc(O[C@@H]4CN(Cc5cc(F)c6ncc(N7CCOCC7)cc6c5)C[C@H]4COC(F)(F)F)ccc3C2=O)C(=O)N1 [Example 140, (3S)-3-(5-{[(3S,4S)-1-{[8-fluoro-3-(morpholin-4-yl)quinolin-6-yl]methyl}-4-[(trifluoromethoxy)methyl]pyrrolidin-3-yl]oxy}-1-oxo-2,3-dihydro-1H-isoindol-2-yl)piperidine-2,6-dione], the EC50 [1] was 56 nM, the “MDA-MB 231 Cell Prolif. 120 hr YMin (%)” value [1] was 24.8% and the DC50 [2] was 1 nM. The “293T-LentiX WEE1-ePL Degradation 4 hr YMin (%)” value [2] was 25.3%, the EC50 [3] was 1 nM and the “MKN45 Cell Prolif. 120 hr YMin (%)” value [3] was 8.3%.

O=C1CC[C@H](N2Cc3cc(O[C@@H]4CN(Cc5cc(F)c6nc(C7CCOCC7)ccc6c5)C[C@H]4c4ccncc4)ccc3C2=O)C(=O)N1 (relative stereo) [Example 118, (S)-3-(5-(((3S*,4R*)-1-((8-fluoro-2-(tetrahydro-2H-pyran-4-yl)quinolin-6-yl)methyl)-4-(pyridin-4-yl)pyrrolidin-3-yl)oxy)-1-oxoisoindolin-2-yl)piperidine-2,6-dione] was tested, and the EC50 [1] was 286 nM, the “MDA-MB 231 Cell Prolif. 120 hr YMin (%)” value [1] was 70.2% and the “293T-LentiX WEE1-ePL Degradation 4 hr YMin (%)” value [2] was 92.4%. For the same compound, the “MKN45 Cell Prolif. 120 hr YMin (%)” value [3] was 65.0%.

O=C1CC[C@H](N2Cc3cc(O[C@@H]4CN(Cc5cc(F)c6nc(C7CCOCC7)ccc6c5)C[C@H]4C4CCCC4)ccc3C2=O)C(=O)N1 (relative stereo) [Example 123, (S)-3-(5-(((3S*,4R*)-4-Cyclopentyl-1-((8-fluoro-2-(tetrahydro-2H-pyran-4-yl)-quinolin-6-yl)methyl)pyrrolidin-3-yl)oxy)-1-oxoisoindolin-2-yl)piperidine-2,6-dione] was tested, and the EC50 [1] was 3490 nM, the “MDA-MB 231 Cell Prolif. 120 hr YMin (%)” value [1] was 81.9% and the “293T-LentiX WEE1-ePL Degradation 4 hr YMin (%)” value [2] was 82.5%. The “MKN45 Cell Prolif. 120 hr YMin (%)” value [3] was 80.9%.

In the case of COC[C@@H]1CN(Cc2ccc3nc(C4CCN(C5COC5)CC4)ccc3c2)C[C@H]1Oc1ccc2c(c1)CN([C@H]1CCC(=O)NC1=O)C2=O [Example 114, (3S)-3-(5-{[(3S,4S)-4-(methoxymethyl)-1-({2-[1-(oxetan-3-yl)piperidin-4-yl]quinolin-6-yl}methyl)pyrrolidin-3-yl]oxy}-1-oxo-2,3-dihydro-1H-isoindol-2-yl)piperidine-2,6-dione], the EC50 [1] is reported as 14 nM, the “MDA-MB 231 Cell Prolif. 120 hr YMin (%)” value [1] is reported as 47.4% and the “293T-LentiX WEE1-ePL Degradation 4 hr YMin (%)” value [2] is reported as 29.7%. The EC50 [3] was 1 nM and the “MKN45 Cell Prolif. 120 hr YMin (%)” value [3] was 8.6%.

In the case of COC[C@@H]1CN(Cc2cc(F)c3nc(COC4CCN(C)CC4)ncc3c2)C[C@H]1Oc1ccc2c(c1)CN([C@H]1CCC(=O)NC1=O)C2=O [Example 43, (3S)-3-(5-{[(3S,4S)-1-[(8-fluoro-2-{[(1-methylpiperidin-4-yl)oxy]methyl}quinazolin-6-yl)methyl]-4-(methoxymethyl)pyrrolidin-3-yl]oxy}-1-oxo-2,3-dihydro-1H-isoindol-2-yl)piperidine-2,6-dione], the EC50 [1] is reported as 520 nM, the “MDA-MB 231 Cell Prolif. 120 hr YMin (%)” value [1] is reported as 51.3% and the DC50 [2] is reported as 133 nM. The “293T-LentiX WEE1-ePL Degradation 4 hr YMin (%)” value [2] was 34.3%, the EC50 [3] was 38 nM and the “MKN45 Cell Prolif. 120 hr YMin (%)” value [3] was 10.0%.

COC[C@@H]1CN(Cc2cc(F)c3nc(C4CCCN4C)ccc3c2)C[C@H]1Oc1ccc2c(c1)CN([C@H]1CCC(=O)NC1=O)C2=O (relative stereo) [Example 66, rel-(3S)-3-(5-(((3S,4S)-1-((8-fluoro-2-(1-methylpyrrolidin-2-yl)quinolin-6-yl)methyl)-4-(methoxymethyl)pyrrolidin-3-yl)oxy)-1-oxoisoindolin-2-yl)piperidine-2,6-dione] was tested, and the EC50 [1] was 107 nM, the “MDA-MB 231 Cell Prolif. 120 hr YMin (%)” value [1] was 57.1% and the DC50 [2] was 3 nM. The “293T-LentiX WEE1-ePL Degradation 4 hr YMin (%)” value [2] was 32.7%, the EC50 [3] was 5 nM and the “MKN45 Cell Prolif. 120 hr YMin (%)” value [3] was 13.9%.

O=C(O)CC(CCO)c1ccc2cc(CN3CC[C@H](Oc4ccc5c(c4)CN([C@H]4CCC(=O)NC4=O)C5=O)C3)cc(F)c2n1 (relative stereo) [Example 99, rel-3-(6-{[(3S)-3-({2-[(3S)-2,6-dioxopiperidin-3-yl]-1-oxo-2,3-dihydro-1H-isoindol-5-yl}oxy)pyrrolidin-1-yl]methyl}-8-fluoroquinolin-2-yl)-5-hydroxypentanoic acid] was tested, and the EC50 [1] was 73 nM, the “MDA-MB 231 Cell Prolif. 120 hr YMin (%)” value [1] was 78.7% and the DC50 [2] was 75 nM. The “293T-LentiX WEE1-ePL Degradation 4 hr YMin (%)” value [2] was 39.0%, the EC50 [3] was 282 nM and the “MKN45 Cell Prolif. 120 hr YMin (%)” value [3] was 82.9%.

COC[C@H]1CN(Cc2cc(F)c3nc(C4CCOCC4)ccc3c2)C[C@H]1Oc1ccc2c(c1)CN([C@H]1CCC(=O)NC1=O)C2=O [Example 83, (3S)-3-(5-{[(3S,4R)-1-{[8-fluoro-2-(oxan-4-yl)quinolin-6-yl]methyl}-4-(methoxymethyl)pyrrolidin-3-yl]oxy}-1-oxo-2,3-dihydro-1H-isoindol-2-yl)piperidine-2,6-dione] was tested, and the EC50 [1] was 1120 nM, the “MDA-MB 231 Cell Prolif. 120 hr YMin (%)” value [1] was 87.9% and the “293T-LentiX WEE1-ePL Degradation 4 hr YMin (%)” value [2] was 81.6%. For the same compound, the EC50 [3] was 109 nM and the “MKN45 Cell Prolif. 120 hr YMin (%)” value [3] was 94.8%.

For COC[C@@H]1CN(Cc2ncc3cc(N4CCOCC4)ccc3c2F)C[C@H]1Oc1ccc2c(c1)CN([C@H]1CCC(=O)NC1=O)C2=O [Example 71, (3S)-3-(5-{[(3S,4S)-1-{[4-fluoro-7-(morpholin-4-yl)isoquinolin-3-yl]methyl}-4-(methoxymethyl)pyrrolidin-3-yl]oxy}-1-oxo-2,3-dihydro-1H-isoindol-2-yl)piperidine-2,6-dione], the EC50 [1] was 5 nM, the “MDA-MB 231 Cell Prolif. 120 hr YMin (%)” value [1] was 26.6% and the “293T-LentiX WEE1-ePL Degradation 4 hr YMin (%)” value [2] was 25.3%. For the same compound, the EC50 [3] was 1 nM and the “MKN45 Cell Prolif. 120 hr YMin (%)” value [3] was 8.7%.

O=C1CC[C@H](N2Cc3cc(O[C@H]4CN(Cc5cc(F)c6nc(C7CCOCC7)ccc6c5)C[C@@H]4c4ccccc4)ccc3C2=O)C(=O)N1 (relative stereo) [Example 145, (S)-3-(5-(((3R*,4S*)-1-((8-fluoro-2-(tetrahydro-2H-pyran-4-yl)quinolin-6-yl)methyl)-4-phenylpyrrolidin-3-yl)oxy)-1-oxoisoindolin-2-yl)piperidine-2,6-dione] was tested, and the EC50 [1] was 2370 nM, the “MDA-MB 231 Cell Prolif. 120 hr YMin (%)” value [1] was 74.7% and the DC50 [2] was 4 nM. The “293T-LentiX WEE1-ePL Degradation 4 hr YMin (%)” value [2] was 22.4%, the EC50 [3] was 33 nM and the “MKN45 Cell Prolif. 120 hr YMin (%)” value [3] was 16.3%.

O=C1CC[C@H](N2Cc3cc(O[C@@H]4CN(Cc5cc(F)c6nc(N7C[C@@H]8CCO[C@@H]8C7)ccc6c5)CC4(F)F)ccc3C2=O)C(=O)N1 (single isomer, unassigned) [Example 15, (S)-3-(5-(((R)-4,4-difluoro-1-((8-fluoro-2-((3aS*,6aS*)-hexahydro-5H-furo[2,3-c]pyrrol-5-yl)quinolin-6-yl)methyl)pyrrolidin-3-yl)oxy)-1-oxoisoindolin-2-yl)piperidine-2,6-dione] was tested, and the EC50 [1] was 73 nM, the “MDA-MB 231 Cell Prolif. 120 hr YMin (%)” value [1] was 31.4% and the DC50 [2] was 2 nM. The “293T-LentiX WEE1-ePL Degradation 4 hr YMin (%)” value [2] was 28.4%, the EC50 [3] was 6 nM and the “MKN45 Cell Prolif. 120 hr YMin (%)” value [3] was 8.8%.
